Source: PubChem BioAssay (NCI)
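In this assay, cells in 96-well plates receive the compound at five concentrations for 48 hours. Endpoints are linearly interpolated between the surrounding concentrations. Here, GI50 denotes the concentration required for 50% inhibition of growth. TGI: concentration producing complete growth inhibition.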

How the values were obtained:
Assay in all cases: inhibition of tumour cell growth, NCI panel, 48 h
CAKI-1 renal = system: CAKI-1 renal
NCI-H460 lung = system: NCI-H460 lung
RPMI-8226 leukemia = system: RPMI-8226 leukemia
U251 CNS = system: U251 CNS
SK-OV-3 ovarian = system: SK-OV-3 ovarian
T-47D breast = system: T-47D breast
UACC-257 melanoma = system: UACC-257 melanoma
OVCAR-5 ovarian = system: OVCAR-5 ovarian
RXF 393 renal = system: RXF 393 renal
SR leukemia = system: SR leukemia
HCT-116 colon = system: HCT-116 colon
K-562 leukemia = system: K-562 leukemia
SNB-75 CNS = system: SNB-75 CNS
OVCAR-8 ovarian = system: OVCAR-8 ovarian
HOP-62 NSCLC = system: HOP-62 NSCLC
A549 NSCLC = system: A549 NSCLC
DU-145 prostate = system: DU-145 prostate
BT-549 breast = system: BT-549 breast
HCC-2998 colon = system: HCC-2998 colon
KM12 colon = system: KM12 colon
A498 renal = system: A498 renal
NCI/ADR-RES ovarian = system: NCI/ADR-RES ovarian
NCI-H522 lung = system: NCI-H522 lung
MDA-MB-231 breast = system: MDA-MB-231 breast
TK-10 renal = system: TK-10 renal
MDA-MB-435 = system: MDA-MB-435
HS 578T breast = system: HS 578T breast
NCI-H23 lung = system: NCI-H23 lung
SW-620 colon = system: SW-620 colon
UO-31 renal = system: UO-31 renal
ACHN renal = system: ACHN renal
SK-MEL-28 melanoma = system: SK-MEL-28 melanoma
SF-295 CNS = system: SF-295 CNS
SNB-19 CNS = system: SNB-19 CNS
HCT-15 colon = system: HCT-15 colon
PC-3 prostate = system: PC-3 prostate
OVCAR-3 ovarian = system: OVCAR-3 ovarian
MOLT-4 leukemia = system: MOLT-4 leukemia
UACC-62 melanoma = system: UACC-62 melanoma
SF-539 CNS = system: SF-539 CNS
NCI-H226 lung = system: NCI-H226 lung
SF-268 CNS = system: SF-268 CNS
LOX IMVI melanoma = system: LOX IMVI melanoma
M14 melanoma = system: M14 melanoma
EKVX NSCLC = system: EKVX NSCLC
HOP-92 NSCLC = system: HOP-92 NSCLC
SN12C renal = system: SN12C renal
IGROV1 ovarian = system: IGROV1 ovarian
CCRF-CEM leukemia = system: CCRF-CEM leukemia
OVCAR-4 ovarian = system: OVCAR-4 ovarian
MCF7 breast = system: MCF7 breast
MALME-3M melanoma = system: MALME-3M melanoma
HL-60(TB) leukemia = system: HL-60(TB) leukemia
SK-MEL-5 melanoma = system: SK-MEL-5 melanoma
SK-MEL-2 melanoma = system: SK-MEL-2 melanoma
HT29 colon = system: HT29 colon
786-0 renal = system: 786-0 renal
COLO 205 colon = system: COLO 205 colon

Structure (SMILES): CN1CCN(Cc2ccc(NC(=O)c3cncc(C#Cc4ncc5ccccn45)c3)cc2C(F)(F)F)CC1
- GI50 (CAKI-1 renal): 913 nM
- TGI (CAKI-1 renal): 3.99 µM
- GI50 (NCI-H460 lung): 1020 nM
- TGI (NCI-H460 lung): 3.86 µM
- GI50 (RPMI-8226 leukemia): 858 nM
- TGI (RPMI-8226 leukemia): 4.15 µM
- GI50 (U251 CNS): 2890 nM
- TGI (U251 CNS): 6.39 µM
- GI50 (SK-OV-3 ovarian): 1330 nM
- TGI (SK-OV-3 ovarian): 4.58 µM
- GI50 (T-47D breast): 1600 nM
- TGI (T-47D breast): 6.76 µM
- GI50 (UACC-257 melanoma): 1440 nM
- TGI (UACC-257 melanoma): 4.57 µM
- GI50 (OVCAR-5 ovarian): 1760 nM
- TGI (OVCAR-5 ovarian): 8.41 µM
- GI50 (RXF 393 renal): 1090 nM
- TGI (RXF 393 renal): 3.73 µM
- GI50 (SR leukemia): 511 nM
- TGI (SR leukemia): 1410 nM
- GI50 (HCT-116 colon): 674 nM
- TGI (HCT-116 colon): 3.06 µM
- GI50 (K-562 leukemia): 2.5 nM
- TGI (K-562 leukemia): 2910 nM
- GI50 (SNB-75 CNS): 2730 nM
- TGI (SNB-75 CNS): 5.77 µM
- GI50 (OVCAR-8 ovarian): 2210 nM
- TGI (OVCAR-8 ovarian): 5.42 µM
- GI50 (HOP-62 NSCLC): 1450 nM
- TGI (HOP-62 NSCLC): 4.77 µM
- GI50 (A549 NSCLC): 1350 nM
- TGI (A549 NSCLC): 5.48 µM
- GI50 (DU-145 prostate): 1350 nM
- TGI (DU-145 prostate): 4.51 µM
- GI50 (BT-549 breast): 1980 nM
- TGI (BT-549 breast): 5.03 µM
- GI50 (HCC-2998 colon): 3.37 µM
- TGI (HCC-2998 colon): 6.99 µM
- GI50 (KM12 colon): 11.2 nM
- TGI (KM12 colon): 2900 nM
- GI50 (A498 renal): 2830 nM
- TGI (A498 renal): 5.96 µM
- GI50 (NCI/ADR-RES ovarian): 2770 nM
- TGI (NCI/ADR-RES ovarian): 16 µM
- GI50 (NCI-H522 lung): 1430 nM
- TGI (NCI-H522 lung): 5.58 µM
- GI50 (MDA-MB-231 breast): 881 nM
- TGI (MDA-MB-231 breast): 5.92 µM
- GI50 (TK-10 renal): 3.43 µM
- TGI (TK-10 renal): 8.21 µM
- GI50 (MDA-MB-435): 2010 nM
- TGI (MDA-MB-435): 5.23 µM
- GI50 (HS 578T breast): 688 nM
- TGI (HS 578T breast): 3.61 µM
- GI50 (NCI-H23 lung): 1340 nM
- TGI (NCI-H23 lung): 5.75 µM
- GI50 (SW-620 colon): 842 nM
- TGI (SW-620 colon): 3.12 µM
- GI50 (UO-31 renal): 1250 nM
- TGI (UO-31 renal): 3.72 µM
- GI50 (ACHN renal): 967 nM
- TGI (ACHN renal): 3.8 µM
- GI50 (SK-MEL-28 melanoma): 2820 nM
- TGI (SK-MEL-28 melanoma): 6.19 µM
- GI50 (SF-295 CNS): 1350 nM
- TGI (SF-295 CNS): 4.75 µM
- GI50 (SNB-19 CNS): 3.09 µM
- TGI (SNB-19 CNS): 8.44 µM
- GI50 (HCT-15 colon): 1200 nM
- TGI (HCT-15 colon): 7.4 µM
- GI50 (PC-3 prostate): 1270 nM
- TGI (PC-3 prostate): 8.65 µM
- GI50 (OVCAR-3 ovarian): 2430 nM
- TGI (OVCAR-3 ovarian): 8.21 µM
- GI50 (MOLT-4 leukemia): 892 nM
- TGI (MOLT-4 leukemia): 5.82 µM
- GI50 (UACC-62 melanoma): 3.04 µM
- TGI (UACC-62 melanoma): 6.76 µM
- GI50 (SF-539 CNS): 471 nM
- TGI (SF-539 CNS): 1910 nM
- GI50 (NCI-H226 lung): 451 nM
- TGI (NCI-H226 lung): 3.91 µM
- GI50 (SF-268 CNS): 2060 nM
- TGI (SF-268 CNS): 7.22 µM
- GI50 (LOX IMVI melanoma): 1270 nM
- TGI (LOX IMVI melanoma): 4.55 µM
- GI50 (M14 melanoma): 1010 nM
- TGI (M14 melanoma): 3.98 µM
- GI50 (EKVX NSCLC): 1300 nM
- TGI (EKVX NSCLC): 5.54 µM
- GI50 (HOP-92 NSCLC): 762 nM
- TGI (HOP-92 NSCLC): 2370 nM
- GI50 (SN12C renal): 1260 nM
- TGI (SN12C renal): 4.41 µM
- GI50 (IGROV1 ovarian): 892 nM
- TGI (IGROV1 ovarian): 4.07 µM
- GI50 (CCRF-CEM leukemia): 962 nM
- TGI (CCRF-CEM leukemia): 8.3 µM
- GI50 (OVCAR-4 ovarian): 531 nM
- TGI (OVCAR-4 ovarian): 4.57 µM
- GI50 (MCF7 breast): 738 nM
- TGI (MCF7 breast): 3.07 µM
- GI50 (MALME-3M melanoma): 772 nM
- TGI (MALME-3M melanoma): 3.6 µM
- GI50 (HL-60(TB) leukemia): 845 nM
- TGI (HL-60(TB) leukemia): 2760 nM
- GI50 (SK-MEL-5 melanoma): 3.13 µM
- TGI (SK-MEL-5 melanoma): 6.37 µM
- GI50 (SK-MEL-2 melanoma): 876 nM
- TGI (SK-MEL-2 melanoma): 3.82 µM
- GI50 (HT29 colon): 827 nM
- TGI (HT29 colon): 8.96 µM
- GI50 (786-0 renal): 3 µM
- TGI (786-0 renal): 6.4 µM
- GI50 (COLO 205 colon): 561 nM
- TGI (COLO 205 colon): 1390 nM
